Read-outs that look alike come from different tables or passages of the source.
Test system: recombinant NL-Rluc virus
Assay: Inhibition of HIV replication (NL-Rluc virus, luciferase readout in MT-2 cells)
Format: cell-based
Conditions: Human immunodeficiency virus 1, MT2, 120 h

## Cc1nc2cc(NCCc3ccccc3)nn2c(-c2cc(F)c3c(c2C)CCCO3)c1[C@H](OC(C)(C)C)C(=O)O [Example 39, (2S)-2-(tert-butoxy)-2-(7-(8-fluoro-5-methylchroman-6-yl)-5-methyl-2-(phenethylamino)pyrazolo[1,5-a]pyrimidin-6-yl)acetic acid]
read-out: Activity
  EC50: < 100 nM

## Cc1ccc(CCNc2cc3nc(C)c([C@H](OC(C)(C)C)C(=O)O)c(-c4cc(F)c5c(c4C)CCCO5)n3n2)cc1 [Example 40, (2S)-2-(tert-butoxy)-2-(7-(8-fluoro-5-methylchroman-6-yl)-5-methyl-2-((4-methylphenethyl)amino)pyrazolo[1,5-a]pyrimidin-6-yl)acetic acid]
read-out: Activity
  EC50: < 100 nM

## Cc1nc2cc(NCCCc3ccccc3)nn2c(-c2cc(F)c3c(c2C)CCCO3)c1[C@H](OC(C)(C)C)C(=O)O [Example 41, (2S)-2-(tert-butoxy)-2-(7-(8-fluoro-5-methylchroman-6-yl)-5-methyl-2-((3-phenylpropyl)amino)pyrazolo[1,5-a]pyrimidin-6-yl)acetic acid]
  EC50: 50 nM
read-out: Activity
  EC50: < 100 nM

## Cc1nc2cc(NCCCC3CCCC3)nn2c(-c2cc(F)c3c(c2C)CCCO3)c1[C@H](OC(C)(C)C)C(=O)O [Example 42, (2S)-2-(tert-butoxy)-2-(2-((3-cyclopentylpropyl)amino)-7-(8-fluoro-5-methylchroman-6-yl)-5-methylpyrazolo[1,5-a]pyrimidin-6-yl)acetic acid]
read-out: Activity
  EC50: < 100 nM

## Cc1nc2cc(NCCC(C)C)nn2c(-c2cc(F)c3c(c2C)CCCO3)c1[C@H](OC(C)(C)C)C(=O)O [Example 43, (2S)-2-(tert-butoxy)-2-(7-(8-fluoro-5-methylchroman-6-yl)-2-(isopentylamino)-5-methylpyrazolo[1,5-a]pyrimidin-6-yl)acetic acid]
read-out: Activity
  EC50: < 100 nM

## Cc1nc2cc(N(CCC(C)C)CCC(C)C)nn2c(-c2cc(F)c3c(c2C)CCCO3)c1[C@H](OC(C)(C)C)C(=O)O [Example 44, (2S)-2-(tert-butoxy)-2-(2-(diisopentylamino)-7-(8-fluoro-5-methylchroman-6-yl)-5-methylpyrazolo[1,5-a]pyrimidin-6-yl)acetic acid]
  EC50: 1600 nM
read-out: Activity
  EC50: > 1000 nM

## Cc1nc2cc(NCCC(C)(C)C)nn2c(-c2cc(F)c3c(c2C)CCCO3)c1[C@H](OC(C)(C)C)C(=O)O [Example 45, (2S)-2-(tert-butoxy)-2-(2-((3,3-dimethylbutyl)amino)-7-(8-fluoro-5-methylchroman-6-yl)-5-methylpyrazolo[1,5-a]pyrimidin-6-yl)acetic acid]
read-out: Activity
  EC50: < 100 nM

## Cc1nc2cc(N(CCC(C)(C)C)CCC(C)(C)C)nn2c(-c2cc(F)c3c(c2C)CCCO3)c1[C@H](OC(C)(C)C)C(=O)O [Example 46, (2S)-2-(2-(bis(3,3-dimethylbutyl)amino)-7-(8-fluoro-5-methylchroman-6-yl)-5-methylpyrazolo[1,5-a]pyrimidin-6-yl)-2-(tert-butoxy)acetic acid]
  EC50: 2570 nM
read-out: Activity
  EC50: > 1000 nM

## Cc1nc2cc(NCCC(C)CC(C)(C)C)nn2c(-c2cc(F)c3c(c2C)CCCO3)c1[C@H](OC(C)(C)C)C(=O)O (stereo partly drawn) [Example 47, (2S)-2-(tert-butoxy)-2-(7-(8-fluoro-5-methylchroman-6-yl)-5-methyl-2-((3,5,5-trimethylhexyl)amino)pyrazolo[1,5-a]pyrimidin-6-yl)acetic acid]
read-out: Activity
  EC50: < 100 nM

## Cc1nc2cc(NCCC(F)(F)F)nn2c(-c2cc(F)c3c(c2C)CCCO3)c1[C@H](OC(C)(C)C)C(=O)O [Example 48, (2S)-2-(tert-butoxy)-2-(7-(8-fluoro-5-methylchroman-6-yl)-5-methyl-2-((3,3,3-trifluoropropyl)amino)pyrazolo[1,5-a]pyrimidin-6-yl)acetic acid]
  EC50: 340 nM
read-out: Activity
  EC50: 100 to 1000 nM

## Cc1nc2cc(NC3CCCC3)nn2c(-c2cc(F)c3c(c2C)CCCO3)c1[C@H](OC(C)(C)C)C(=O)O [Example 49, (2S)-2-(tert-butoxy)-2-(2-(cyclopentylamino)-7-(8-fluoro-5-methylchroman-6-yl)-5-methylpyrazolo[1,5-a]pyrimidin-6-yl)acetic acid]
read-out: Activity
  EC50: 100 to 1000 nM

## Cc1nc2cc(N3CCCCC3)nn2c(-c2cc(F)c3c(c2C)CCCO3)c1[C@H](OC(C)(C)C)C(=O)O [Example 50, (2S)-2-(tert-butoxy)-2-(7-(8-fluoro-5-methylchroman-6-yl)-5-methyl-2-(piperidin-1-yl)pyrazolo[1,5-a]pyrimidin-6-yl)acetic acid]
  EC50: 60 nM
read-out: Activity
  EC50: < 100 nM

## Cc1nc2cc(N3CCCC3)nn2c(-c2cc(F)c3c(c2C)CCCO3)c1[C@H](OC(C)(C)C)C(=O)O [Example 51, (2S)-2-(tert-butoxy)-2-(7-(8-fluoro-5-methylchroman-6-yl)-5-methyl-2-(pyrrolidin-1-yl)pyrazolo[1,5-a]pyrimidin-6-yl)acetic acid]
read-out: Activity
  EC50: 100 to 1000 nM

## Cc1nc2cc(N(C)CCCC3CCCC3)nn2c(-c2cc(F)c3c(c2C)CCCO3)c1[C@H](OC(C)(C)C)C(=O)O [Example 52, (2S)-2-(tert-butoxy)-2-(2-((3-cyclopentylpropyl)(methyl)amino)-7-(8-fluoro-5-methylchroman-6-yl)-5-methylpyrazolo[1,5-a]pyrimidin-6-yl)acetic acid]
read-out: Activity
  EC50: < 100 nM

Source: patent US9006235B2, “Inhibitors of human immunodeficiency virus replication” (priority 2012, dated 2015)
